Source: US20240158446A1, “CYCLIC COMPOUND HAVING SELECTIVE INHIBITORY ACTION ON KRAS OVER HRAS AND NRAS” (CHUGAI SEIYAKU KABUSHIKI KAISHA, priority 2021, published 2024)
Like-named read-outs stand apart in the source and are kept apart here. *1 amine or outer side, *2 acyl side, *3 side chain or, on linkers, in order; H or OH if unused. Where a SMILES comes first, the peptide text is derived from it. Bridges are numbered along the chain shown (N, C = ends). [ ]: non-standard residue; d: D form. The star is where a group is joined. hPhe(3,5-F2-4-CF3) = N[C@@H](CCc1cc(F)c(C(F)(F)F)c(F)c1)C(=O)O; hPhe(3-Cl-4-CF3) = N[C@@H](CCc1ccc(C(F)(F)F)c(Cl)c1)C(=O)O; NPrPhe(4-CF3) = CCCN[C@@H](Cc1ccc(C(F)(F)F)cc1)C(=O)O; NEtPhe(4-Me) = CCN[C@@H](Cc1ccc(C)cc1)C(=O)O; NMeAbu(4,4,4-F3) = CN[C@@H](CC(F)(F)F)C(=O)O; NMeGly(cPent) = CN[C@H](C(=O)O)C1CCCC1; X44 = CC1(C)CN([*:1])[C@@H]1C(=O)[*:2]; NMeI = CC[C@H](C)[C@H](NC)C(=O)O; NMeD = CN[C@@H](CC(=O)O)C(=O)O; NMeL = CN[C@@H](CC(C)C)C(=O)O; Morpholide = C1CN(*)CCO1; NMeA = CN[C@@H](C)C(=O)O; Ac5c = NC1(C(=O)O)CCCC1; Aze = O=C(O)[C@@H]1CCN1; Aib = CC(C)(N)C(=O)O; Sar = CNCC(=O)O

How the values were obtained:
[1] = target: GDP-bound KRAS wild-type protein (Homo sapiens, UniProt P01116); experiment: Binding to KRAS by surface plasmon resonance (SPR), Single Cycle Kinetics; conditions: GDP-bound KRAS wild-type protein, read-out: KRAS KD
GDP-bound KRAS wild-type protein, sequence (P01116 whole entry): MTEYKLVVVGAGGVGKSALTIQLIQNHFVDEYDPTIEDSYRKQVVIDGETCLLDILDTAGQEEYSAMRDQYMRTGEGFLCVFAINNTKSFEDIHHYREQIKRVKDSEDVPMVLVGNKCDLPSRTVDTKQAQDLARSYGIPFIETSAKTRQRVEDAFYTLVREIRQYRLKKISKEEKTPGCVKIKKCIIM

[2] = target: GDP-bound NRAS wild-type protein (Homo sapiens, UniProt P01111); experiment: Binding to NRAS by surface plasmon resonance (SPR), Single Cycle Kinetics; conditions: SPR, GDP-bound NRAS wild-type protein vs GDP-bound KRAS wild-type protein
GDP-bound NRAS wild-type protein, sequence (P01111 whole entry): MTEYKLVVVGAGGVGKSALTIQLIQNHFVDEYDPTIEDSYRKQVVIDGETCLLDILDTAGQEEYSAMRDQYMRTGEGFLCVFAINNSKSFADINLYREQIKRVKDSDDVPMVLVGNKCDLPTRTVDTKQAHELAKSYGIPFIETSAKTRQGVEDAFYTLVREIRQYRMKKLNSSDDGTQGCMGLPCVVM

[3] = target: GDP-bound HRAS wild-type protein (Homo sapiens, UniProt P01112); experiment: Binding to HRAS by surface plasmon resonance (SPR), Single Cycle Kinetics; conditions: SPR, GDP-bound HRAS wild-type protein vs GDP-bound KRAS wild-type protein
GDP-bound HRAS wild-type protein, sequence (P01112 whole entry): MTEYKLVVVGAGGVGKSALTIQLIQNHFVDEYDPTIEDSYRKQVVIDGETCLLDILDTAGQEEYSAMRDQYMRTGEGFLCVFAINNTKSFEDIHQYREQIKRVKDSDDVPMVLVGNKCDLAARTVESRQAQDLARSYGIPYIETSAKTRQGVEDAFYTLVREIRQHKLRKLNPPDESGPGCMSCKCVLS

[4] = SPR Single Cycle Kinetics, 1:1 binding model

| SMILES | Kd ([1]; SPR, Single Cycle Kinetics) | NRAS/KRAS (ratio of KD value for NRAS to KD value for KRAS) [2] | HRAS/KRAS (ratio of KD value for HRAS to KD value for KRAS) [3] | Kd [1, 4] | other results |
| --- | --- | --- | --- | --- | --- |
| CCO[C@@H]1C[C@H]2C(=O)NC3(CCC3)C(=O)N(C)[C@@H](C3CCCC3)C(=O)N(C)[C@H](C(=O)N3CCOCC3)CC(=O)N(C)[C@@H](Cc3ccccc3C)C(=O)N[C@@H]([C@@H](C)CC)C(=O)N(C)CC(=O)N(C)[C@H]3CCCCCN(C3=O)[C@@H](Cc3ccc(C(F)(F)F)cc3)C(=O)N(C)CC(=O)N[C@@H](CCc3cc(F)c(C(F)(F)F)c(F)c3)C(=O)N2C1 [PP0931] | 1.9 nM | A (a compound having 10 or more and less than 20 is denoted as A) | B (a compound having 3 or more and less than 10 is denoted as B) |  |  |
| CC[C@H](C)[C@@H]1NC(=O)[C@H](CC2CC2)N(C)C(=O)C[C@@H](C(=O)N(C)C)N(C)C(=O)[C@H](C2CCCC2)N(C)C(=O)C2(CC(C)(C)C2)NC(=O)[C@@H]2C[C@@H](C(F)(F)F)CN2C(=O)[C@H](CCc2cc(F)c(C(F)(F)F)c(F)c2)NC(=O)CN(C)C(=O)[C@H](Cc2ccc(C(F)(F)F)cc2)N2CC/C=C\C[C@@H](C2=O)N(C)C(=O)CN(C)C1=O [PP1504] |  |  |  |  | Kd ([1]; SPR, Single Cycle Kinetics, 1:1 binding model): 0.32 nM; NRAS/KRAS (ratio of KD value for NRAS to KD value for KRAS) ([2]; KD ratio class): A (a compound having 10 or more and less than 20 is denoted as A); HRAS/KRAS (ratio of KD value for HRAS to KD value for KRAS) ([3]; KD ratio class): A (a compound having 10 or more and less than 20 is denoted as A) |
| CCO[C@@H]1C[C@H]2C(=O)NC3(CC(C)(C)C3)C(=O)N(C)[C@@H](C(CC)CC)C(=O)N(C)[C@H](C(=O)N(C)C)CC(=O)N(C)[C@@H](CC(C)C)C(=O)N[C@@H]([C@@H](C)CC)C(=O)N(C)CC(=O)N(C)[C@H]3C/C=C\CCN(C3=O)[C@@H](Cc3ccc(C)cc3)C(=O)N(C)CC(=O)N[C@@H](CCc3ccc(C(F)(F)F)c(OC)c3)C(=O)N2C1 [PP2168] | 0.33 nM | A (a compound having 10 or more and less than 20 is denoted as A) | A (a compound having 10 or more and less than 20 is denoted as A) |  |  |
| CC[C@H](C)[C@@H]1NC(=O)[C@H](COC)N(C)C(=O)C[C@@H](C(=O)N2CCOCC2)N(C)C(=O)[C@H](C2CCCC2)N(C)C(=O)C2(CCC2)NC(=O)[C@@H]2C[C@H](OC)CN2C(=O)[C@H](CCc2cc(F)c(C(F)(F)F)c(F)c2)NC(=O)CN(C)C(=O)[C@H](Cc2ccc(C(F)(F)F)cc2)N2CCCCC[C@@H](C2=O)N(C)C(=O)CN(C)C1=O [PP0836] | 0.63 nM | B (a compound having 3 or more and less than 10 is denoted as B) | B (a compound having 3 or more and less than 10 is denoted as B) |  |  |
| CC[C@H](C)[C@@H]1NC(=O)[C@H](CC(C)C)N(C)C(=O)C[C@@H](C(=O)N(C)C)N(C)C(=O)[C@H](C2CCCC2)N(C)C(=O)C2(CCCC2)NC(=O)[C@@H]2C[C@H](C)CN2C(=O)[C@H](CCc2cc(F)c(C(F)(F)F)c(F)c2)NC(=O)CN(C)C(=O)[C@H](Cc2ccc(C(F)(F)F)cc2)N2CC/C=C\C[C@@H](C2=O)N(C)C(=O)CN(C)C1=O [PP2268] | 0.12 nM | A (a compound having 10 or more and less than 20 is denoted as A) | A (a compound having 10 or more and less than 20 is denoted as A) |  |  |
| CCCN1C(=O)[C@@H]2CCN2C(=O)[C@H](C)N(C)C(=O)[C@H]([C@@H](C)CC)NC(=O)[C@H](CC(C)C)N(C)C(=O)C[C@@H](C(=O)N2CCOCC2)N(C)C(=O)[C@H](C2CCCC2)N(C)C(=O)C(C)(C)NC(=O)[C@@H]2CCCN2C(=O)[C@H](CCc2ccc(C(F)(F)F)c(Cl)c2)NC(=O)CN(C)C(=O)[C@@H]1Cc1ccc(C(F)(F)F)cc1 [PP0225] ([NMeL]I[NMeA][Aze][NPrPhe(4-CF3)][Sar][hPhe(3-Cl-4-CF3)]P[Aib][NMeGly(cPent)][NMeD]-Morpholide; lactam N-11) |  | C (A compound having a KD ratio of 0.1 or more and less than 3 is denoted as C) | C (A compound having a KD ratio of 0.1 or more and less than 3 is denoted as C) | 0.23 nM |  |
| CCO[C@@H]1C[C@H]2C(=O)NC3(CCC3)C(=O)N(C)[C@@H](C3CCCC3)C(=O)N(C)[C@H](C(=O)N(C)C)CC(=O)N(C)[C@@H](C)C(=O)N[C@@H]([C@@H](C)CC)C(=O)N(C)CC(=O)N(C)[C@H]3C/C=C\CCN(C3=O)[C@@H](Cc3ccc(C(F)(F)F)cc3)C(=O)N(C)CC(=O)N[C@@H](CCc3cc(F)c(C(F)(F)F)c(F)c3)C(=O)N2C1 [PP1108, (2S,8S,12R,14S,20S,23S,27S,30S,36S,38Z)-20-cyclopentyl-8-[2-[3,5-difluoro-4-(trifluoromethyl)phenyl]ethyl]-12-ethoxy-N,N,4,19,22,26,27,32,35-nonamethyl-30-[(1S)-1-methylpropyl]-3,6,9,15,18,21,25,28,31,34,42-undecaoxo-2-[[4-(trifluoromethyl)phenyl]methyl]spiro[1,4,7,10,16,19,22,26,29,32,35-undecazatricyclo[34.5.1.0^10,14]dotetracont-38-ene-17,1′-cyclobutane]-23-carboxamide] | 0.033 nM | A (a compound having 10 or more and less than 20 is denoted as A) | A (a compound having 10 or more and less than 20 is denoted as A) |  |  |
| CC[C@H](C)[C@@H]1NC(=O)[C@H](CC(C)C)N(C)C(=O)C[C@@H](C(=O)N2CCOCC2)N(C)C(=O)[C@H]([C@@H](C)CC)N(C)C(=O)C2(CCCC2)NC(=O)[C@@H]2CCCN2C(=O)[C@H](CCc2ccc(C(F)(F)F)c(Cl)c2)NC(=O)CN(C)C(=O)[C@H](Cc2ccc(C)cc2)N(CC)C(=O)CN(C)C(=O)CN(C)C1=O [PP0043] ([NMeL]I[Sar][Sar][NEtPhe(4-Me)][Sar][hPhe(3-Cl-4-CF3)]P[Ac5c][NMeI][NMeD]-Morpholide; lactam N-11) |  | C (A compound having a KD ratio of 0.1 or more and less than 3 is denoted as C) | C (A compound having a KD ratio of 0.1 or more and less than 3 is denoted as C) | 0.87 nM |  |
| CCCN1C(=O)CN(C)C(=O)CN(C)C(=O)[C@H]([C@@H](C)CC)NC(=O)[C@H](CC(C)C)N(C)C(=O)C[C@@H](C(=O)N(C)C)N(C)C(=O)[C@H](CC(F)(F)F)N(C)C(=O)C2(CCCC2)NC(=O)[C@@H]2CCCN2C(=O)[C@H](CCc2cc(F)c(C(F)(F)F)c(F)c2)NC(=O)CN(C)C(=O)[C@@H]1Cc1ccc(C(F)(F)F)cc1 [PP0746] ([NMeL]I[Sar][Sar][NPrPhe(4-CF3)][Sar][hPhe(3,5-F2-4-CF3)]P[Ac5c][NMeAbu(4,4,4-F3)][NMeD]-NMe2; lactam N-11) |  |  |  | 0.43 nM | NRAS/KRAS (ratio of KD value with respect to NRAS to KD value with respect to KRAS) [2]: B (a compound having 3 or more and less than 10 is denoted as B); HRAS/KRAS (ratio of KD value with respect to HRAS to KD value with respect to KRAS) [3]: C (A compound having a KD ratio of 0.1 or more and less than 3 is denoted as C) |
| CCCN1C(=O)CN(C)C(=O)[C@H]2N(CC2(C)C)C(=O)[C@H]([C@@H](C)CC)NC(=O)[C@H](CC(C)C)N(C)C(=O)C[C@@H](C(=O)N2CCOCC2)N(C)C(=O)[C@H](C2CCCC2)N(C)C(=O)C2(CCCC2)NC(=O)[C@@H]2CCCN2C(=O)[C@H](CCc2ccc(C(F)(F)F)c(Cl)c2)NC(=O)CN(C)C(=O)[C@@H]1Cc1ccc(C(F)(F)F)cc1 [PP0256] ([NMeL]I[X44][Sar][NPrPhe(4-CF3)][Sar][hPhe(3-Cl-4-CF3)]P[Ac5c][NMeGly(cPent)][NMeD]-Morpholide; lactam N-11) |  | B (a compound having 3 or more and less than 10 is denoted as B) | C (A compound having a KD ratio of 0.1 or more and less than 3 is denoted as C) | 0.99 nM |  |
| C#CCN1CC(=O)N(C)[C@H]2C/C=C\CCN(C2=O)[C@@H](Cc2ccc(C)cc2)C(=O)N(C)CC(=O)N[C@@H](CCc2cc(F)c(C(F)(F)F)c(F)c2)C(=O)N2C[C@H](OCC)C[C@H]2C(=O)NC2(CC(C)(C)C2)C(=O)N(C)[C@@H](C2CCCC2)C(=O)N(C)[C@H](C(=O)N(C)C)CC(=O)N(C)[C@@H](CC(C)C)C(=O)N[C@@H]([C@@H](C)CC)C1=O [PP2052] | 0.16 nM | A (a compound having 10 or more and less than 20 is denoted as A) | A (a compound having 10 or more and less than 20 is denoted as A) |  |  |
| CCOC[C@H]1C(=O)N[C@@H]([C@@H](C)CC)C(=O)N(C)CC(=O)N(C)[C@H]2C/C=C\CCN(C2=O)[C@@H](CC2CCC(F)(F)CC2)C(=O)N(C)CC(=O)N[C@@H](CCc2ccc(C(F)(F)F)c(OC)c2)C(=O)N2C[C@H](OCC)C[C@H]2C(=O)N(C)C2(CCC2)C(=O)N(C)[C@@H](C(CC)CC)C(=O)N(C)[C@H](C(=O)N(C)C)CC(=O)N1C [PP2347] | 1.6 nM | A (a compound having 10 or more and less than 20 is denoted as A) | A (a compound having 10 or more and less than 20 is denoted as A) |  |  |
